# Source: patent publication US12084420B2, “Indoline compounds for inhibiting KIF18A” (Volastra Therapeutics, Inc., priority 2021, dated 2024)
# Biological target: hKIF18A (1-374) (Homo sapiens (Human), UniProt Q8NI77)
# Test: Inhibition of KIF18A microtubule-dependent ATPase activity (ADP-Glo)
# Conditions: not given
# Sequence of hKIF18A (1-374) (Q8NI77 whole entry, looked up): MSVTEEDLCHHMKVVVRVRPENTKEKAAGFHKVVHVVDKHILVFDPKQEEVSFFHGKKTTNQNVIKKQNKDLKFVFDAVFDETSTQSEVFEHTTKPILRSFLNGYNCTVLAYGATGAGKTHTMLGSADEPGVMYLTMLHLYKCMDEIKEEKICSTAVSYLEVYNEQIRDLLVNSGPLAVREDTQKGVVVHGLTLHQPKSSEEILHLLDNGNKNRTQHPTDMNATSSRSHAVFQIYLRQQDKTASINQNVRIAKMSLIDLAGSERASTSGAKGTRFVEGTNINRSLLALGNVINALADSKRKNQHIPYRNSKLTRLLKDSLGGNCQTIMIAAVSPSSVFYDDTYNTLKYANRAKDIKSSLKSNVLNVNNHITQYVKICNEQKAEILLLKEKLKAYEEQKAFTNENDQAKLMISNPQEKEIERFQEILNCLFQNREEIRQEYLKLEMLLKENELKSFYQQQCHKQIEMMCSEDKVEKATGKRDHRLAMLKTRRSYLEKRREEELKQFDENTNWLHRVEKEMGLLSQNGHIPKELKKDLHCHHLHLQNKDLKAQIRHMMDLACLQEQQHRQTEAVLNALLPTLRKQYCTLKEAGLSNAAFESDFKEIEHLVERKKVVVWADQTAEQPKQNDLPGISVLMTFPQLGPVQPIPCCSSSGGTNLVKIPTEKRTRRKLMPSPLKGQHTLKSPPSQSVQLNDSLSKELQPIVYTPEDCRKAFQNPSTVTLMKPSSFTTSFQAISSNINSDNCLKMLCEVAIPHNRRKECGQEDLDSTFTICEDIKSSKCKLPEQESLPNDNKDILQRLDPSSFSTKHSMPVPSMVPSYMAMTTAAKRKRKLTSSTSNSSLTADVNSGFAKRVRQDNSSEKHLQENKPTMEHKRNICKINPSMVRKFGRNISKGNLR
# Sequence of hKIF18A (1-374) (Q2XVP4 whole entry partner, looked up): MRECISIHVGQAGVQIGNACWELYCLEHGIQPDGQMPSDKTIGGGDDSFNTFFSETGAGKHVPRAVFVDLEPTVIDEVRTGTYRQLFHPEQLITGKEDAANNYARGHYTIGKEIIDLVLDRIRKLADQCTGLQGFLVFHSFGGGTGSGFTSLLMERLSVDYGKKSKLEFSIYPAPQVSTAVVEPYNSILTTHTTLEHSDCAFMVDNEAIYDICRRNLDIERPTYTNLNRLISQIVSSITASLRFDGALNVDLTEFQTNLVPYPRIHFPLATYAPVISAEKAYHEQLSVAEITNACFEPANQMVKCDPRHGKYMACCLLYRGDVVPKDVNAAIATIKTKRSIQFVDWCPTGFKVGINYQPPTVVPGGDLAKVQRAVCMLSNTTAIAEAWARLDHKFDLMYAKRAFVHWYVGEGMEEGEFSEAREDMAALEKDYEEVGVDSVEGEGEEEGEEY
# Sequence of hKIF18A (1-374) (P02554 whole entry partner, looked up): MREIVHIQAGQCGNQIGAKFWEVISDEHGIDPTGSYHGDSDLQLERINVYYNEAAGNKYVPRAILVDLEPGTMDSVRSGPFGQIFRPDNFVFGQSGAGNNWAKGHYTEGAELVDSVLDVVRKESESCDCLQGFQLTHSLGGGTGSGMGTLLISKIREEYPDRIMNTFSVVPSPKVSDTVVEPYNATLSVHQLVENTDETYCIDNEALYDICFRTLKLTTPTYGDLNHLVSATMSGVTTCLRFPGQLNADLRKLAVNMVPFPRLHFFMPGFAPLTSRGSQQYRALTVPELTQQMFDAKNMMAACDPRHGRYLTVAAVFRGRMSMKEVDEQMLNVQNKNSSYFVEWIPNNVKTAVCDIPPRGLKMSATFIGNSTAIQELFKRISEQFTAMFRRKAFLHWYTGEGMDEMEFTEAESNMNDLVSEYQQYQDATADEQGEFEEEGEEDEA
row,IC50,Compound
1,16 nM,"C[C@H]1CCN(S(=O)(=O)c2cccc(C(=O)N3CC4(CCC5(CC5)CC4)c4cc(NS(C)(=O)=O)ccc43)c2)C1 [(S)-Compound 249, (S)-N-(1″-(3-((3-methylpyrrolidin-1-yl)sulfonyl)benzoyl)dispiro[cyclopropane-1,1′-cyclohexane-4′,3″-indolin]-5″- yl)methanesulfonamide]"
2,740 nM,"CC1CCC2(CC1)CN(C(=O)c1cccc(S(=O)(=O)N3CCC(F)(F)CC3)c1)c1ccc(Br)cc12 (stereo not drawn) [Compound 15, (5′-bromo-4-methylspiro[cyclohexane-1,3′-indolin]-1′-yl)(3-((4,4-difluoropiperidin-1-yl)sulfonyl)phenyl)methanone]"

# Same assay, conditions: KIF18A microtubule-dependent ATPase activity, biochemical assay
row,Compound,IC50
1,"CS(=O)(=O)Nc1ccc2c(c1)C1(CCC3(CC3)CC1)CN2C(=O)c1cccc(S(=O)(=O)NC2CC2)c1 [Compound 212, N-cyclopropyl-3-(5″- (methylsulfonamido)dispiro[cyclopropane-1,1′-cyclohexane-4′,3″-indoline]-1″-carbonyl)benzenesulfonamide]",12 nM
2,CC(C)(C)NS(=O)(=O)c1cccc(C(=O)N2C[C@]3(CC[C@@H](C(F)F)CC3)c3cc(NS(C)(=O)=O)ccc32)c1 [Compound 162b],37 nM
3,"CS(=O)(=O)Nc1ccc2c(c1)C1(CCCCC1)CN2C(=O)c1cccc(S(=O)(=O)NC2CC2)c1 [Compound 46, N-cyclopropyl-3-(5′-(methylsulfonamido)spiro[cyclohexane-1,3′-indoline]-1′-carbonyl)benzenesulfonamide]",120 nM
4,"O=C(c1cccc(S(=O)(=O)N2CCC(F)(F)CC2)c1)N1CC2(CCCC2)c2c(F)cccc21 [Compound 1, (3-((4,4-difluoropiperidin-1-yl)sulfonyl)phenyl)(4′-fluorospiro[cyclopentane-1,3′-indolin]-1′-yl)methanone]",1600 nM
5,"CC1CCC2(CC1)CN(C(=O)c1cccc(S(=O)(=O)N3CCC(F)(F)CC3)c1)c1ccc(Br)cc12 (stereo not drawn) [Compound 15, (5′-bromo-4-methylspiro[cyclohexane-1,3′-indolin]-1′-yl)(3-((4,4-difluoropiperidin-1-yl)sulfonyl)phenyl)methanone]",780 nM
6,"N-(1-hydroxy-2-methylpropan-2-yl)-3- (5″- (methylsulfonamido)dispiro[cyclopropane- 1,1′-cyclohexane-4′,3″-indoline]- 1″-carbonyl)benzenesulfonamide [Compound 194]",50 nM
7,"CC(C)(C)NS(=O)(=O)c1ccc(C(=O)N2CC3(CCCCC3)c3cc(NS(C)(=O)=O)ccc32)o1 [Compound 149, N-(tert-butyl)-5-(5′-(methylsulfonamido)spiro[cyclohexane-1,3′-indoline]-1′-carbonyl)furan-2-sulfonamide]",78 nM
8,"CC(C)(C)NS(=O)(=O)c1cc(F)cc(C(=O)N2CC3(CCCCC3)c3cc(NS(C)(=O)=O)ccc32)c1 [Compound 95, N-(tert-butyl)-3-fluoro-5-(5′-(methylsulfonamido)spiro[cyclohexane-1,3′-indoline]-1′-carbonyl)benzenesulfonamide]",170 nM
9,"CC(C)C(C)NS(=O)(=O)c1cccc(C(=O)N2CC3(CCC4(CC4)CC3)c3cc(NS(C)(=O)=O)ccc32)c1 (stereo not drawn) [Compound 210, N-(3-methylbutan-2-yl)-3-(5″- (methylsulfonamido)dispiro[cyclopropane-1,1′-cyclohexane-4′,3″-indoline]-1″-carbonyl)benzenesulfonamide]",16 nM
10,"CC1CCC2(C1)CN(C(=O)c1cccc(S(=O)(=O)NC(C)(C)C)c1)c1ccc(NS(C)(=O)=O)cc12 (stereo not drawn) [Compound 252, N-(tert-butyl)-3-(3-methyl-5′-(methylsulfonamido)spiro[cyclopentane-1,3′-indoline]-1′-carbonyl)benzenesulfonamide]",34 nM
11,"CS(=O)(=O)Nc1ccc2c(c1)C1(CCCCC1)CN2C(=O)c1cccc(SC2CCCC2)c1 [Compound 146, N-(1′-(3-(cyclopentylthio)benzoyl)spiro[cyclohexane-1,3′-indolin]-5′-yl)methanesulfonamide]",190 nM
12,"O=C(c1cccc(S(=O)(=O)N2CCCC2)c1)N1CC2(CCC3(CC3)CC2)c2ccccc21 [Compound 8, dispiro[cyclopropane-1,1′-cyclohexane-4′,3″-indolin]-1″-yl(3-(pyrrolidin-1-ylsulfonyl)phenyl)methanone]",940 nM
13,"CS(=O)(=O)Nc1ccc2c(c1)C1(CCC3(CC3)CC1)CN2C(=O)c1cccc(S(=O)(=O)NC2CCCC2)c1 [Compound 176, N-cyclopentyl-3-(5″- (methylsulfonamido)dispiro[cyclopropane-1,1″-cyclohexane-4′,3″-indoline]-1″-carbonyl)benzenesulfonamide]",5.6 nM
14,"CC1CCN(S(=O)(=O)c2cccc(C(=O)N3CC4(CCC5(CC5)CC4)c4cc(NS(C)(=O)=O)ccc43)c2)C1 (stereo not drawn) [Compound 249, N-(1″-(3-((3-methylpyrrolidin-1-yl)sulfonyl)benzoyl)dispiro[cyclopropane-1,1′-cyclohexane-4′,3″-indolin]-5″- yl)methanesulfonamide]",9 nM

# Other lines, results leading:
row,IC50,Compound
1,28 nM,"CS(=O)(=O)Nc1ccc2c(c1)C1(CCC3(CC3)CC1)CN2C(=O)c1cccc(C(O)CN2CC(F)(F)C2)c1 (stereo not drawn) [Compound 314, N-(1″-(3-(2-(3,3-difluoroazetidin-1-yl)-1-hydroxyethyl)benzoyl)dispiro[cyclopropane-1,1′-cyclohexane-4′,3″-indolin]-5″-yl)methanesulfonamide]"
2,8.8 nM,"CS(=O)(=O)Nc1ccc2c(c1)C1(CCC3(CC3)CC1)CN2C(=O)c1cccc(C(O)C2CC(F)(F)C2)c1 (stereo not drawn) [Compound 351, N-(1″-(3-((3,3-difluorocyclobutyl)(hydroxyj)methyl)benzoyl)dispiro[cyclopropane-1,1′-cyclohexane-4′,3″-indolin]-5″- yl)methanesulfonamide]"
3,50 nM,"CC(C)S(=O)(=O)c1cccc(C(=O)N2CC3(CCC4(CC4)CC3)c3cc(NS(C)(=O)=O)ccc32)c1 [Compound 326, N-(1″-(3-(isopropylsulfonyl)benzoyl)dispiro [cyclopropane-1,1′-cyclohexane-4′,3″- indolin]-5″-yl)methanesulfonamide]"
4,170 nM,"CC(C)(C)[C@H](O)c1ccc(C(=O)N2CC3(CCC4(CC4)CC3)c3cc(NS(C)(=O)=O)ccc32)o1 (single isomer, unassigned) [Compound 373b]"
5,5.8 nM,"CS(=O)(=O)Nc1ccc2c(c1)C1(CCC3(CC3)CC1)CN2C(=O)c1csc(S(=O)(=O)NC2CCC2)c1 [Compound 291, N-cyclobutyl-4-(5″- (methylsulfonamido)dispiro[cyclopropane-1,1′-cyclohexane-4′,3″-indoline]-1″-carbonyl)thiophene-2-sulfonamide]"
6,21 nM,"CS(=O)(=O)Nc1ccc2c(c1)C1(CCC3(CC3)CC1)CN2C(=O)c1csc(C(O)C2CCCC2)c1 (stereo not drawn) [Compound 301, N-(1″-(5-(cyclopentyl(hydroxy)methyl)thiophene-3-carbonyl)dispiro[cyclopropane-1,1′-cyclohexane-4′,3″-indolin]-5″-yl)methanesulfonamide]"
7,58 nM,"CS(=O)(=O)Nc1ccc2c(c1)C1(CCC3(CC3)CC1)CN2C(=O)c1cccc(CN2CC(F)(F)C2)c1 [Compound 345, N-(1″-(3-((3,3-difluoroazetidin-1-yl)methyl)benzoyl)dispiro[cyclopropane-1,1′-cyclohexane-4′,3″-indolin]-5″-yl)methanesulfonamide]"
8,6 nM,"CC(C)(C)NS(=O)(=O)c1cc(C(=O)N2CC3(CCC4(CC4)CC3)c3cc(NS(=O)(=O)CCO)ccc32)cs1 [Compound 274, N-(tert-butyl)-4-(5″-((2-hydroxyethyl)sulfonamido)dispiro [cyclopropane-1,1′-cyclohexane-4′,3″- indoline]-1″-carbonyl)thiophene-2-sulfonamide]"
9,11 nM,"CC1CCC(NS(=O)(=O)c2cccc(C(=O)N3CC4(CCC5(CC5)CC4)c4cc(NS(C)(=O)=O)ccc43)c2)C1 (stereo not drawn) [Compound 285, N-(3-methylcyclopentyl)-3-(5″- (methylsulfonamido)dispiro[cyclopropane-1,1′-cyclohexane-4′,3″-indoline]-1″-carbonyl)benzenesulfonamide]"
10,5.1 nM,"CS(=O)(=O)Nc1ccc2c(c1)C1(CCC3(CC3)CC1)CN2C(=O)c1cc(C(O)C2CCCC2)cs1 (stereo not drawn) [Compound 364, N-(1″-(4-(cyclopentyl(hydroxy)methyl)thiophene-2-carbonyl)dispiro[cyclopropane-1,1′-cyclohexane-4′,3″-indolin]-5″- yl)methanesulfonamide]"
11,22 nM,"CC(=O)NCCCS(=O)(=O)Nc1ccc2c(c1)C1(CCC3(CC3)CC1)CN2C(=O)c1cccc(S(=O)(=O)NC(C)(C)C)c1 [Compound 292, N-(3-(N-(1″-(3-(N-(tert-butyl)sulfamoyl)benzoyl)dispiro [cyclopropane-1,1′-cyclohexane-4′,3″- indolin]-5″- yl)sulfamoyl)propyl)acetamide]"
12,40 nM,"CC(C)(C)[C@H](O)c1ccc(C(=O)N2CC3(CCC4(CC4)CC3)c3cc(NS(=O)(=O)CCO)ccc32)o1 (single isomer, unassigned) [Compound 371b]"
13,49 nM,"CC(C)(C)NS(=O)(=O)c1cccc(C(=O)N2CC3(CCC4(CC4)CC3)c3cc(C(O)C(F)(F)F)ccc32)c1 (stereo not drawn) [Compound 338, N-(tert-butyl)-3-(5″-(2,2,2-trifluoro-1-hydroxyethyl)dispiro[cyclopropane-1,1′-cyclohexane-4′,3″-indoline]-1″-carbonyl)benzenesulfonamide]"
14,3.9 nM,"CCS(=O)(=O)Nc1ccc2c(c1)C1(CCC3(CC3)CC1)CN2C(=O)c1ccc(C(O)C2CCCC2)o1 (single isomer, unassigned) [Compound 367a]"
15,21 nM,"CS(=O)(=O)Nc1ccc2c(c1)C1(CCC3(CC3)CC1)CN2C(=O)c1ccnc([C@@H](O)C2CCCC2)c1 (single isomer, unassigned) [Compound 316a]"
16,12 nM,"CS(=O)(=O)Nc1ccc2c(c1)C1(CCC3(CC3)CC1)CN2C(=O)c1csc(S(=O)(=O)C2CCCC2)c1 [Compound 330, N-(1″-(5-(cyclopentylsulfonyl)thiophene-3-carbonyl)dispiro[cyclopropane-1,1′-cyclohexane-4′,3″-indolin]-5″- yl)methanesulfonamide]"
17,44 nM,"CCS(=O)(=O)Nc1ccc2c(c1)C1(CCC(F)(F)CC1)CN2C(=O)c1cccc(S(=O)(=O)NC(C)(C)C)c1 [Compound 327, N-(tert-butyl)-3-(5′-(ethylsulfonamido)-4,4-difluorospiro[cyclohexane-1,3′-indoline]-1′-carbonyl)benzenesulfonamide]"
